{"source": "patent US20070254905A1", "about": "“Pharmaceutical Formulation for Increasing Solubility of 10-Hydroxycamptothecin Compounds in Non-Aqueous Polar Solvents” (priority 2004, published 2007)", "key": {"[1]": {"type": "physicochemical"}, "[2]": {"assay": "SN-38 content, lactone/carboxy anion ratio and pH after dilution of surfactant composition with aqueous solution", "type": "physicochemical", "conditions": "tromethamine/ethanol/cremophore EL solution, refrigerator 1 week, diluted with 0.9% saline to 5 Ml"}, "[3]": {"assay": "Lyophilized SN-38 formulation reconstituted with water for injection, HPLC and pH", "type": "physicochemical", "experimental": "Alternatively, a 10-hydroxycamptothecin compound and an amine compound are solubilized in non-aqueous polar solvent, and polymer surfactant is added thereto to prepare a solution. Next, a caking agent for lyophilization is added thereto to prepare a lyophilized formulation. As a specific example, 250 mg of copolymer (mPEG-PLA) of polyethyleneglycol (molecular weight: 2,000 daltons) and polylactic acid (molecular weight: 1,800 daltons) maybe added to a solution in which SN-38 and tromethamine are solubilized in anhydrous ethanol as above, to prepare a pure solution, and then 4 Ml of aqueous mannitol solution (100 mg/Ml) as a caking agent for lyophilization is added thereto, which is filtered with a filter having a pore size of 200 nm, and lyophilized. This lyophilized formulation is reconstituted with 4 Ml of water for injection, and then analyzed by HPLC to confirm that the concentration of SN-38 was 205 μg/Ml, 92% or more of SN-38 existed in the form of a lactone, and the pH of the aqueous solution was 8.4.\n12 mg of tromethamine was dissolved in 1 ml of anhydrous ethanol, and 1 mg of SN-38 was added thereto and heated to 60[…] to prepare a pure solution of orange color. Subsequently, the block copolymer of methoxypolyethyleneglycol and polylactic acid, and 200 mg of mPEG-PLA (mPEG molecular weight: 2,000 daltons, PLA molecular weight: 1,800 daltons) were added thereto to prepare a pure solution. Then, 5 ml of aqueous mannitol solution (50 mg/ml) was added thereto, mixed, filtered with a filter having a pore size of 200 nm, and lyophilized to prepare a lyophilized formulation.\nInjectable water of 4 Ml was added to the lyophilized vial to reconstitute the lyophilized formulation."}, "topoisomerase □": {"target": "T1, topoisomerase □ (Homo sapiens, UniProt P11387)", "T1 sequence (P11387 1-765)": "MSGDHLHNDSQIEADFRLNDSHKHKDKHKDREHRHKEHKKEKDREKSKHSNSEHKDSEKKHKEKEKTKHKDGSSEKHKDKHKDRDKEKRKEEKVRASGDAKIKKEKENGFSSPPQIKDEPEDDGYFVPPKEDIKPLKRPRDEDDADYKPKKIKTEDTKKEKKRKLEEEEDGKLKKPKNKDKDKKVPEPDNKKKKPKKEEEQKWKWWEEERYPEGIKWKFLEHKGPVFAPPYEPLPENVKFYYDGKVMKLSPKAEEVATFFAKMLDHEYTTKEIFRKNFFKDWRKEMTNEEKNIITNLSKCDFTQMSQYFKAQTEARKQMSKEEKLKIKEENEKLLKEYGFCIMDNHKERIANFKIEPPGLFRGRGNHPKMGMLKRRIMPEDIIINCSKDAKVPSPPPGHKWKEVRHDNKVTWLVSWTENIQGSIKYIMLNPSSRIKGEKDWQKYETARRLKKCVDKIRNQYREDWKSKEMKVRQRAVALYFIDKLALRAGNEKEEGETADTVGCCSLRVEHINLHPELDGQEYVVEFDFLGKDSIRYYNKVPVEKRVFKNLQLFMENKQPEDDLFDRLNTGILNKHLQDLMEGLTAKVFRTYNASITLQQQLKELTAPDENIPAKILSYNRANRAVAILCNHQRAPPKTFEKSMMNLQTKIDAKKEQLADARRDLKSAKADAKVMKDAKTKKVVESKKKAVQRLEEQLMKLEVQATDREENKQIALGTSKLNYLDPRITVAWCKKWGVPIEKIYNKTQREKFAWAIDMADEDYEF", "conditions": "relative to CPT-11; cited from earlier work"}, "physchem": {"assay": "physchem", "conditions": "organic solvent or mixture, thermodynamic from solid"}, "[4]": {"conditions": "cited from earlier work"}, "acetylcholine": {"test_system": "acetylcholine", "conditions": "compared with CPT-11; cited from earlier work"}, "[5]": {"conditions": "anhydrous ethanol, 10 equivalents of triethanolamine"}, "[6]": {"conditions": "lyophilized with 250 mg mPEG-PLA, tromethamine, mannitol, reconstituted with 4 Ml water for injection"}}, "note": "Read-outs that look alike come from different tables or passages of the source.", "data": [{"compound": "CCc1c2c(nc3ccc(O)cc13)-c1cc3c(c(=O)n1C2)COC(=O)C3(O)CC", "note": "(stereo not drawn) [SN-38, 7-ethyl-10-hydroxycamptothecin]", "values": [{"measurement": "SN-38 in the form of a lactone", "setting": "[1]; 1 mg SN-38, 10 mg tromethamine, 1 Ml anhydrous ethanol, 500 mg cremophore EL, diluted with acetonitrile", "result": 100, "unit": "%"}, {"measurement": "Lacton content", "setting": "[1]; SN-38 1 mg in 1 ml anhydrous ethanol, amine compound 10 equivalents", "result": 100, "unit": "%"}, {"measurement": "Lacton content", "setting": "[1]; SN-38 1 mg in 1 ml organic solvent, tromethamine 10 equivalents", "result": 100, "unit": "%"}, {"measurement": "Form of SN-38 by HPLC analysis", "setting": "[1]; [5]", "result": "no carboxy anion form was observed"}, {"measurement": "Concentration of SN-38", "setting": "[2]", "result": 220, "unit": "µg/mL"}, {"measurement": "SN-38 in the form of the lactone", "setting": "[2]", "result": "≥ 95", "unit": "%"}, {"measurement": "pH of the solution diluted with saline", "setting": "[2]", "result": 8.7}, {"measurement": "pH of the aqueous solution", "setting": "[3]; Example 8: 12 mg tromethamine, 200 mg mPEG-PLA, mannitol, lyophilized, reconstituted with 4 Ml injectable water", "result": 8.4}, {"measurement": "Lactone form of SN-38", "setting": "[3]; Example 8 lyophilized formulation reconstituted with 4 Ml injectable water", "result": 97, "unit": "%"}, {"measurement": "Drug content", "setting": "[3]; Example 8 lyophilized formulation reconstituted with 4 Ml injectable water, HPLC", "result": 242, "unit": "µg/mL"}, {"measurement": "Concentration of SN-38", "setting": "[3]; [6]", "result": 205, "unit": "µg/mL"}, {"measurement": "SN-38 in the form of a lactone", "setting": "[3]; [6]", "result": "≥ 92", "unit": "%"}, {"measurement": "pH of the aqueous solution", "setting": "[3]; [6]", "result": 8.4}, {"measurement": "Solubility of SN-38", "setting": "anhydrous ethanol without adding an amine compound", "result": "a few"}, {"measurement": "Solubility of SN-38", "setting": "[5]", "result": "about 1 mg/Ml"}, {"measurement": "Activity for inhibiting topoisomerase □, higher than that of CPT-11", "setting": "topoisomerase □", "result": "about 1,000 times"}, {"measurement": "solubility at 12 h", "setting": "physchem; Solubility of SN-38 in ethanol, ethanol, no amine", "result": 8, "unit": "µg/mL"}, {"measurement": "solubility at 12 h", "setting": "physchem; Solubility of SN-38 in ethanol, in the presence of 5 or more equivalents of diethanolamine", "result": "≥ 1000", "unit": "µg/mL"}, {"measurement": "solubility at 12 h", "setting": "physchem; Solubility, SN-38 1 mg in 1 ml anhydrous ethanol, amine compound 10 equivalents, room temperature 12 hours", "result": "≥ 1000", "unit": "µg/mL"}, {"measurement": "solubility at 12 h", "setting": "physchem; Solubility, SN-38 1 mg in 1 ml organic solvent, tromethamine 10 equivalents, room temperature 12 hours", "result": "≥ 1000", "unit": "µg/mL"}, {"measurement": "Solubility in water of the active lactone form", "setting": "[4]; active lactone form", "result": "not more than 10 μg/ml"}, {"measurement": "Solubility of SN-38 in water", "setting": "[4]", "result": "not more than 10 μg/ml"}, {"measurement": "Solubility in water of the carboxy anion form", "setting": "[4]; inactive carboxy anion form", "result": "≥ 4000", "unit": "µg/mL"}, {"measurement": "Effect for inhibiting acetylcholine which causes diarrhea", "setting": "acetylcholine", "result": "much lower than that of CPT-11"}]}]}
